For orientation: GI50 means the concentration that inhibits growth by half.

Consider ten compounds from ChEMBL document CHEMBL1201862, “PubChem BioAssay data set” (2004).

Among the test systems are UACC-62; DU-145; A549; SK-MEL-28; MDA-MB-231; NCI-H23; NCI-H522; SW-620; SNB-75; SF-268; RXF 393; OVCAR-3; 786-0; SK-MEL-2; RPMI-8226; HCT-15; M14; UACC-257; IGROV-1; LOX IMVI.
Holding throughout (assay): DTP human tumour cell line panel, 48 h

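Briefly, cells in 96-well plates were exposed to five compound concentrations for 48 h, and endpoints were estimated by linear interpolation. GI50 marks 50% less growth.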 Activity calls are given as the source filed them. Rule as the data show it: active = GI50 up to about 1.1 µM and inactive = higher.

Consider `NNC(=O)CNc1cccc(Br)c1`, for which the GI50 with UACC-62, with DU-145, with A549, in the test with SK-MEL-28, in the test on MDA-MB-231 and with NCI-H23 was > 100 µM (inactive) each time. In addition, the GI50 in the test on NCI-H522, in the test on SW-620, with SNB-75, in the test on SF-268, with RXF 393 and in the test with OVCAR-3 was > 100 µM (inactive) in each case. For the same compound, the GI50 is > 100 µM (inactive) in the test on 786-0; > 100 µM (inactive) in the test on SK-MEL-2; > 100 µM (inactive) with RPMI-8226; above 100 µM in the test on HCT-15; > 100 µM (inactive) in the test with M14; > 100 µM (inactive) in the test on UACC-257. The GI50 in the test with IGROV-1 and with LOX IMVI was > 100 µM (inactive) in each case.

Consider `CN(/N=C(\C(=O)O)c1ccccc1)C1=NCCCCN1`, for which the GI50 with UACC-62, in the test on DU-145, with A549, in the test on SK-MEL-28, with MDA-MB-231 and in the test on NCI-H23 was > 100 µM (inactive) throughout. For the same compound, the GI50 in the test with NCI-H522, in the test with SW-620, in the test with SNB-75, with SF-268, with RXF 393 and in the test on OVCAR-3 was > 100 µM (inactive) in each case. The GI50 with 786-0 is > 100 µM (inactive); in the test on SK-MEL-2, > 100 µM (inactive); in the test on RPMI-8226, > 100 µM (inactive); in the test on HCT-15, above 100 µM; in the test on UACC-257, > 100 µM (inactive); with IGROV-1 it was 94.6 µM (inactive). Besides, the GI50 in the test with LOX IMVI was > 100 µM (inactive).

Take `Nc1nc(NCC2(CO)CC(CCc3ccccc3)C2)cc(=O)[nH]1` (centres undefined): the GI50 in the test with UACC-62, in the test on DU-145, in the test with A549, with SK-MEL-28, in the test on MDA-MB-231 and in the test with NCI-H23 was > 100 µM (inactive) each time. Also, the GI50 in the test with NCI-H522, in the test on SW-620, in the test on SNB-75, in the test on SF-268, in the test with RXF 393 and in the test with OVCAR-3 was > 100 µM (inactive) in each case. For the same compound, the GI50 in the test with 786-0 is > 100 µM (inactive); in the test on SK-MEL-2 it was > 100 µM (inactive); in the test with RPMI-8226, 46.7 µM (inactive); in the test on HCT-15 it was above 100 µM; with M14, > 100 µM (inactive); in the test with UACC-257, > 100 µM (inactive). The GI50 with IGROV-1 and in the test with LOX IMVI was > 100 µM (inactive) in each case.

For the compound `COC(=O)[C@]1(C)CCC[C@@]2(C)[C@@H]3C[C@@H]4[C@H]5C[C@@]3(CC[C@@H]21)C[C@@]45C`, the GI50 is 14.8 µM (inactive) in the test on UACC-62; 25.8 µM (inactive) in the test on DU-145; 14.1 µM (inactive) in the test with A549; 17.5 µM (inactive) in the test on SK-MEL-28; 15.6 µM (inactive) with MDA-MB-231; 14.6 µM (inactive) in the test with NCI-H23. Besides, the GI50 is 16.8 µM (inactive) with NCI-H522; 24.3 µM (inactive) with SW-620; 17.7 µM (inactive) with SNB-75; 17.9 µM (inactive) in the test with SF-268; 17.1 µM (inactive) in the test with RXF 393; 18.2 µM (inactive) in the test with OVCAR-3. The GI50 was 16.1 µM (inactive) with 786-0; 16.4 µM (inactive) in the test with SK-MEL-2; 10.3 µM (inactive) in the test on RPMI-8226; 16.2 µM with HCT-15; 20.7 µM (inactive) with M14; 15.4 µM (inactive) in the test on UACC-257. Also, the values for the GI50 in the test on IGROV-1 and in the test on LOX IMVI were 19.3 µM (inactive) and 19.7 µM (inactive), respectively.

Take `CC[C@@H](/C=C\CCC1(C[C@@H](N)CCC=C(C)C)OCCO1)O[Si](C(C)C)(C(C)C)C(C)C`: the GI50 with UACC-62 was 17.8 µM (inactive); with DU-145, 19.8 µM (inactive); with A549, 18.2 µM (inactive); with SK-MEL-28, 18 µM (inactive); in the test with MDA-MB-231, 19 µM (inactive); with NCI-H23, 21.1 µM (inactive). Besides, the GI50 with NCI-H522 is 20 µM (inactive); in the test with SW-620, 21.7 µM (inactive); in the test on SNB-75 it was 18.9 µM (inactive); in the test on SF-268 it was 19.1 µM (inactive); in the test on RXF 393, 19.4 µM (inactive); with OVCAR-3, 18.7 µM (inactive). Moreover, the GI50 with 786-0 is 17.4 µM (inactive); in the test with SK-MEL-2 it was 17.3 µM (inactive); with RPMI-8226, 17.9 µM (inactive); in the test with HCT-15 it was 18.9 µM; in the test on M14, 18.5 µM (inactive); in the test with UACC-257, 19.3 µM (inactive). For the same compound, the GI50 in the test with IGROV-1 was 15.8 µM (inactive); in the test on LOX IMVI, 4.97 µM (inactive).

As for `CN(C)CC1CC/C(=C\c2ccc(O)cc2)C1=O` (centres undefined), the GI50 in the test with UACC-62 is 6.12 µM (inactive); in the test with DU-145 it was 16.1 µM (inactive); in the test on A549, 19 µM (inactive); in the test on SK-MEL-28, 2.48 µM (inactive); with MDA-MB-231, 4.14 µM (inactive); in the test on NCI-H23, 6.67 µM (inactive). Besides, the GI50 in the test on NCI-H522 was 1.47 µM (inactive); in the test with SW-620, 2.33 µM (inactive); in the test with SNB-75, 11 µM (inactive); in the test with SF-268, 9.62 µM (inactive); in the test on RXF 393 it was 2.07 µM (inactive); in the test on OVCAR-3 it was 3.67 µM (inactive). Further, the GI50 is 2.16 µM (inactive) with 786-0; 8.28 µM (inactive) in the test with SK-MEL-2; 1.02 µM (active) with RPMI-8226; 2.21 µM in the test with HCT-15; 2.14 µM (inactive) in the test on M14; 3.94 µM (inactive) with UACC-257. Also, the GI50 in the test on IGROV-1 was 11.3 µM (inactive); in the test with LOX IMVI, 2.3 µM (inactive).

Turning to `Cc1ccc2c(O)cc(-c3cccs3)nc2n1`, the GI50 in the test with UACC-62 was 9.04 µM (inactive); in the test on DU-145 it was 30.5 µM (inactive); with A549 it was 9.79 µM (inactive); with SK-MEL-28 it was 7.33 µM (inactive); with MDA-MB-231 it was > 72.6 µM (inactive); in the test on NCI-H23 it was 7.71 µM (inactive). Further, the GI50 in the test on NCI-H522 is 4.58 µM (inactive); in the test on SW-620 it was 3.07 µM (inactive); in the test on SNB-75, 10.1 µM (inactive); in the test on SF-268, 49.8 µM (inactive); with RXF 393, 18.1 µM (inactive); with OVCAR-3, 14.3 µM (inactive). Further, the GI50 in the test with 786-0 was 15.1 µM (inactive); in the test with SK-MEL-2 it was > 25.9 µM (inactive); with RPMI-8226, 5.05 µM (inactive); in the test on HCT-15 it was 3.78 µM; in the test with M14, 6.59 µM (inactive); in the test on UACC-257 it was > 100 µM (inactive). The GI50 with IGROV-1 is 4.86 µM (inactive); in the test with LOX IMVI, 11.4 µM (inactive).

Consider `COc1ccc(Cc2cc(OC)c(OC)c(OC)c2)cc1`, for which the 50% growth inhibitory concentration (GI50) was 0.129 µM (active) in the test on UACC-62; 0.328 µM (active) with DU-145; 0.417 µM (active) in the test with A549; 0.479 µM (active) in the test with SK-MEL-28; 0.711 µM (active) in the test on MDA-MB-231; 0.395 µM (active) in the test on NCI-H23. In addition, the 50% growth inhibitory concentration (GI50) was 0.19 µM (active) in the test on NCI-H522; 0.109 µM (active) in the test with SW-620; 0.192 µM (active) with SNB-75; 1.27 µM (inactive) with SF-268; 0.168 µM (active) in the test with RXF 393; 0.151 µM (active) with OVCAR-3. The GI50 was 0.429 µM (active) in the test with 786-0; 0.218 µM (active) in the test with SK-MEL-2; 0.298 µM (active) in the test with RPMI-8226; 0.114 µM with HCT-15; 0.411 µM (active) with M14; 0.509 µM (active) with UACC-257. In addition, the 50% growth inhibitory concentration (GI50) was 0.863 µM (active) in the test with IGROV-1 and 0.393 µM (active) in the test with LOX IMVI.

For the compound `C=C(C)C(=O)OC1CC2(C)OC(=CC2=O)C(C)CC2OC(=O)C(=C)C12` (centres undefined), the GI50 in the test on UACC-62 is 10.8 µM (inactive); with DU-145, 4.74 µM (inactive); with A549 it was 18.9 µM (inactive); with SK-MEL-28, 4.2 µM (inactive); with MDA-MB-231, 13.5 µM (inactive); in the test with NCI-H23 it was 8.89 µM (inactive). Further, the GI50 was 0.832 µM (active) in the test with NCI-H522; 2.79 µM (inactive) in the test on SW-620; 20.2 µM (inactive) in the test on SNB-75; 26.7 µM (inactive) in the test on SF-268; 1.19 µM (inactive) in the test with RXF 393; 5.15 µM (inactive) with OVCAR-3. The GI50 was 3.24 µM (inactive) in the test with 786-0; 14.3 µM (inactive) in the test with SK-MEL-2; 3.3 µM (inactive) in the test with RPMI-8226; 1.65 µM in the test on HCT-15; 5.48 µM (inactive) in the test on M14; 12.3 µM (inactive) with UACC-257. Also, the GI50 with IGROV-1 was 8.85 µM (inactive); in the test with LOX IMVI, 2.94 µM (inactive).

Consider `O=C(/C=C1\N=C(c2ccccc2)N(c2nc3c(Cl)cc(Cl)cc3s2)C1=O)/C=C/c1ccccc1`, for which the GI50 with UACC-62 is 54.7 µM (inactive); with DU-145, > 100 µM (inactive); in the test with A549 it was > 100 µM (inactive); in the test with SK-MEL-28 it was > 100 µM (inactive); with MDA-MB-231 it was > 100 µM (inactive); with NCI-H23, > 100 µM (inactive). Also, the GI50 is 45.1 µM (inactive) in the test with NCI-H522; 72.3 µM (inactive) with SW-620; 36.5 µM (inactive) with SNB-75; > 100 µM (inactive) in the test on SF-268; 63.1 µM (inactive) in the test on RXF 393; 75.3 µM (inactive) in the test on OVCAR-3. For the same compound, the GI50 is > 100 µM (inactive) in the test with 786-0; > 100 µM (inactive) in the test on SK-MEL-2; 63 µM (inactive) with RPMI-8226; 73.1 µM in the test on HCT-15; > 100 µM (inactive) with M14; > 100 µM (inactive) in the test with UACC-257. In addition, the GI50 with IGROV-1 and in the test with LOX IMVI was > 100 µM (inactive) each time.
